Assays:
[1] = biological target: T1, Aβ1–42 fibrils (Homo sapiens, UniProt P05067); test: ELISA, compound binding to Aβ1–42 fibrils; conditions: for binding value, binding Aβ1–42 fibrils: optical density after pNPP incubation
T1 construct: Aβ1–42 was dissolved in hexafluoroisopropanol (HFIP)
Method: (§1) Aβ1–42 peptide film was prepared from lyophilized powder (Bachem). The powder was reconstituted in HFIP to a final concentration of 1 mM, sonicated for 15 min at room temperature (RT), agitated overnight (ON), and aliquoted into non-siliconized microcentrifuge tubes (12 µl corresponding to 55 µg). The HFIP was evaporated under a stream of argon. The resulting peptide film was vacuum dried for 10 min and stored at -80°C. For direct use as peptide film, an aliquot of Aβ1–42 peptide film was reconstituted with 0.54% dimethylsulphoxide (DMSO) in phosphate buffered saline (PBS) to obtain a final concentration of 10 µg/ml and then used for the ELISA as described below. To prepare fibrils, 55 µg aliquot of peptide film was dissolved in 55 µl of 50 mM Tris-HCl, pH 7.4 and incubated at 37°C for five days. Next, the sample was centrifuged (10’000 rpm for 5 min) and the pellet was diluted in 50 mM Tris-HCl, pH 7.4.
(§2) Aβ1–42 peptide preparations were diluted in 0.05 M bicarbonate-carbonate buffer pH 9.6, to the final concentration of 10 µg/ml and coated onto ELISA plates (MaxiSorp, Nunc). After blocking (PBS; 0.05% Tween; 1% BSA), plates were incubated with 2- or 3-fold dilutions of D-compounds (starting concentration: 10 µg/ml) and incubated for 2 h at 37°C. Plates were then washed and incubated for 2 h at 37°C with the detection antibody Rabbit-a-fluorescein isothiocyanate-AP (Sigma; 1∶10’000 dilution) followed by the incubation for 2.5 h at room temperature (RT) with 1 mg/ml of phosphatase substrate (pNPP, Sigma). The absorbance signal was read at 405 nm wavelength using a Tecan plate reader (Tecan Group Lt, Männedorf, Switzerland).
(§3) ELISA plates (MaxiSorp, Nunc) were coated with anti-Aβ antibody 6E10 (Covance) at a concentration of 5 µg/ml. Either monomeric Aβ1–42 peptide film (mainly monomeric) or Aβ1–42 fibrils, which were prepared as described above, were diluted in PBS to the final concentration 10 µg/ml and mixed with 10-fold dilutions of D-peptide compounds in Eppendorf tubes (starting concentration of D-peptide compounds: 10 µg/ml). The tubes were incubated for 2 h at 37°C. Next, samples were distributed onto the ELISA plate and kept for 2 h at 37°C. Plates were washed and incubated for 2 h at 37°C with the detection antibody Rabbit-a-fluorescein isothiocyanate-AP (Sigma; 1∶10′000 dilution) following the incubation overnight (ON) at RT with 1 mg/ml of phosphatase substrate (pNPP, Sigma). The absorbance signal was read at 405 nm wavelength using the Tecan plate reader (Tecan Group Ltd, Männedorf, Switzerland).
(§4) To verify the SPR results, ELISA was employed to assay the interaction of the ACI-80 derivatives ACI-80-Kϕ, ACI-81-Kϕ, ACI-82-Kϕ, ACI-83-Kϕ, ACI-84-Kϕ, ACI-85-Kϕ, ACI-86-Kϕ, ACI-87-Kϕ, [^19F]-ACI-87-Kϕ, ACI-88-Kϕ, [^19F]-ACI-88-Kϕ, ACI-89-Kϕ, [^19F]-ACI-89-Kϕ) with Aβ1–42 fibrils and Aβ peptide film in solution containing mostly monomers and smaller oligomers (Table 4). To avoid any bias by possible conformational influences the ELISA has been carried out in two versions, once with immobilized antibody and once with immobilized Aβ1–42 as described in the methods section. Both assays yielded similar results and confirmed each other. […] Panels A and B in Figure 2 show the results for binding to Aβ1–42 fibrils and panels C and D in Figure 2 show the results for binding to freshly prepared Aβ1–42 peptide film, which contains mostly monomeric Aβ. In Table 4, the performance of the peptides is expressed relative to that of ACI-80-Kϕ.

[2] = biological target: T1, Aβ1–42 fibrils; test: Surface plasmon resonance (Biacore 1000), semi-quantitative binding to immobilized Aβ1–42 fibrils; conditions: 50 µg/ml, PBS pH 7.4
Method: Aβ1–42 was dissolved in hexafluoroisopropanol (HFIP). After overnight incubation, HFIP was removed by evaporation. The Aβ1–42 film was dissolved in PBS buffer pH 7.4 to a concentration of 1 mg/ml and incubated for 7 days at 37°C. For the measurements, a Biacore 1000 (GE Healthcare) instrument was used. Aβ1–42 fibrils (6800 RU) were immobilized on a CM5 sensorchip (GE Healthcare) via amine coupling. The running and sample buffer was PBS, pH 7.4. To allow comparison between the ACI-80 compounds, but to avoid potential over-interpretation of the data by fitting multiple k on and k off values for a yet undefined number of different binding sites, only two values have been taken for further evaluation. Response units achieved under identical injection conditions allow comparison of binding strengths of the compounds. Dissociation rates among the compounds have been compared by measuring the remaining response units 60 s after end of injection as a measure for dissociation (k off). All measurements have been carried out using the same flow cells with identical concentrations and injection conditions. ACI-80-Kϕ derivatives were injected as analytes in a concentration of 50 µg/ml at a flow rate of 5 µl/min for 2 minutes at ambient temperature. The data were evaluated using BiaEvaluation 4.1. The interactions between Aβ1–42 and ACI-80-Kϕ derivatives are given in resonance units (RU) and in % of ACI-80-Kϕ response units. […] Aβ1–42 fibrils were immobilized on a Biacore sensor-chip as described in the methods section, and the interactions of the ϕ-labeled ACI-80 derivatives were measured and compared with original ACI-80-Kϕ. […] Therefore we decided for semi-quantitative comparison between all compounds only. The maximal responses in resonance units (RU) of the ϕ-labeled ACI-80 derivatives during the analyte injection and the remaining response 60 s after injection end (as a semi-quantitative measure for the dissociation rate), have been related to the respective values obtained from identical concentrations of ACI-80-Kϕ in percent.

[3] = biological target: T2, Aβ plaques in brain sections of transgenic APP (V717I) x PS1 (A246E) mice (Homo sapiens, UniProt P05067); test: Ex vivo staining of mouse brain slices by FITC labeled compounds; conditions: 0.01 mg/ml ϕ-labeled compound, 2 h; 10 µm cryostat sections; fluorescence microscopy
T2 construct: triple image overlay of respective stains reveal that the ϕ-compounds identify plaques; from tissue; host or cells: brain cryosections of APP (V717I) x PS1 (A246E) transgenic mice
Method: In vitro tissue section staining was performed according to previously described protocols with slight modifications. Mouse brains were obtained from male transgenic (tg) APP (London mutation V717l) x PS1 (A246E) mice aged 13–21 months and from female wild type (wt) mice aged 9–10 months. The mice were anesthetized and transcardially perfused with saline. The brains were removed and snap frozen. 10 µm thick sagittal cryostat sections through the whole mouse brain were produced and mounted onto glass slides. ϕ-labeled compounds were applied to investigate binding. Thus, the slides were thawed, washed in PBS and fixed in 4% paraformaldehyde (20 min at RT) just before incubation with ϕ-labeled compounds. One series of sections was treated only with fluorescent compounds (0.01 mg/ml, incubation time 2 h) while another series of sections were incubated with anti-Aβ antibody 6E10 at 1∶500 dilution (SIG-39320, Covance; final antibody concentration was 2 µg/ml) in addition to ϕ-labeled compounds (0.01 mg/ml). The slices were washed in PBS. The sections incubated with ϕ-labeled compound and 6E10 antibody were further incubated for 2 h at RT with Goat-anti-Mouse IgG1– AlexaFluor 555 (A21127, Invitrogen, 1∶1000 dilution) and washed with PBS. Finally, all sections were counterstained with 4’–6-Diamidino-2-phenylindole (DAPI, 32670, Sigma, incubation 5 min at RT) for the visualization of cell nuclei. The slides were mounted using Prolong Gold Antifade mounting medium (P36930, Invitrogen) and coverslipped.
The tissues were analyzed using a fluorescent Zeiss Axioscope 2 Plus microscope using the AxioVision 4 image analysis software.
A further series of slices was stained using a primary anti-fluorescein isothiocyanate antibody combined with alkaline phosphatase reaction for visualization of ϕ-labeled peptides. Briefly, the sections were treated with blocking solution (10% normal goat serum (NGS), 0.25% Triton X-100 in PBS for 1 h at RT) and incubated with primary antibody (rabbit-anti-FITC; Invitrogen) at a dilution of 1∶500. The sections were then washed and incubated for 2 h at RT with the secondary antibody goat-anti-rabbit-alkaline phosphatase (Sigma) at a dilution of 1∶100. After washing, the slides were incubated with BCIP/NBT substrate (Sigma) for 3 min, washed, dehydrated and mounted using Eukitt mounting medium.

[4] = biological target: T3, Aβ1–42 monomers (Homo sapiens, UniProt P05067); test: ELISA, compound binding to Aβ1–42 peptide film (predominantly monomers); conditions: 10 µg/ml compound; for binding value, binding Aβ1–42 monomers: optical density after pNPP incubation
T3 construct: Aβ1–42 peptide film was prepared from lyophilized powder (Bachem); purchased Bachem
Method: as §1, §2, §3, §4

[5] = 10 µg/ml compound, value of one single experiment only
[6] = value of one single experiment only

Substance: QSHYRHISPAQKK[^19F]ϕ [[^19F]-ACI-87-Kϕ, fluorinated ϕ-labeled ACI-87]
- ELISA binding to Aβ1–42 [1]: bound well to Aβ1–42 fibrils
- binding value, binding Aβ1–42 fibrils [1, 5]: *1.26
- SPR response as compared to ACI-80-Kϕ [2]: decreased response in comparison to the compound without label
- staining / recognition of Aβ plaques [3]: readily recognized amyloid plaques
- binding value, binding Aβ1–42 monomers [4, 6]: *0.86

Substance: SHYRHISPAQKK[^19F]ϕ [[^19F]-ACI-88-Kϕ, fluorinated ϕ-labeled ACI-88]
- ELISA binding to Aβ1–42 [1]: bound well to Aβ1–42 fibrils
- binding value, binding Aβ1–42 fibrils [1, 5]: *1.76
- off-rate based on remaining response 60 s after injection end [2]: slowest off-rate of all tested compounds
- staining / recognition of Aβ plaques [3]: readily recognized amyloid plaques
- binding value, binding Aβ1–42 monomers [4, 6]: *1.05

Substance: ZSHYRHISPAQVKϕ [ACI-81-Kϕ, ϕ-labeled ACI-80 derivative, Q1Z]
- % binding relative to ACI-80-Kϕ, Aβ1–42 fibrils ([1]; 10 µg/ml compound, ACI-80-Kϕ = 100): 22%
- binding value, binding Aβ1–42 fibrils ([1]; 10 µg/ml compound, average of two or three experiments): 0.20
- SPR response as compared to ACI-80-Kϕ [2]: not significantly increased
- % binding relative to ACI-80-Kϕ, Aβ1–42 monomers ([4]; ACI-80-Kϕ = 100): 27%
- binding value, binding Aβ1–42 monomers ([4]; average of two or three experiments): 0.13

From publication PMC3404088, “Development of a Small D-Enantiomeric Alzheimer’s Amyloid-β Binding Peptide Ligand for Future In Vivo Imaging Applications” (PLoS ONE, 2012)
